Laboratory results taken from article PMC12435844, “cGAS activation converges with intracellular acidification to promote STING aggregation and pyroptosis in tumor models” (The Journal of Clinical Investigation, 2025).

What was measured:
cyclophilin D (CypD) [1] = biological target: T1, cyclophilin D (CypD) (Homo sapiens, UniProt P30405); assay: photoactive click probe in A375 cells, azide-biotin conjugation, streptavidin pull-down and Western blot; type: cell-based
T1 construct: gene PPIF

cyclophilin D (CypD) [2] = biological target: T1, cyclophilin D (CypD); assay: SPR; also FL-DSF (KD […]) and CETSA on immunoprecipitated CypD; type: binding
STING = STING (UniProt Q86WV6); assay: co-immunoprecipitation; conditions: reference: PERK wild type; sites T982

T1 sequence (P30405 30-207): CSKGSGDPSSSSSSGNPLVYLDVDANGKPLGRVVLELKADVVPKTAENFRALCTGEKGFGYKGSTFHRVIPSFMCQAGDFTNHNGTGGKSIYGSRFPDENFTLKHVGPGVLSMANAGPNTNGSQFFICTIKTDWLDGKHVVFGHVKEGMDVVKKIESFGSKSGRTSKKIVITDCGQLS

Q: `C#CCCC1(CC(=O)OCCCCCOC(=O)c2ccc3cc(O)ccc3c2)N=N1` [DHN-P] was tested. Which “photoactive click probe in A375 cells, azide-biotin conjugation, streptavidin pu” value (cyclophilin D (CypD) [1]) did it give?
A: The value was “DHN-P could effectively pull down CypD but not other components in the mPTP complex”.

Q: With `CCCCCCCCCCCCOC(=O)c1ccc2cc(O)ccc2c1` [DHN, dodecyl 6-hydroxy-2-naphthoate] as the compound, how does the Kd (cyclophilin D (CypD) [2]) read?
A: The Kd was 1190 ± 68 nM.

Q: For PERK (from UniProt Q9NZJ5) PERK T982A, which “binding against the reference” value (STING) is on record?
A: Its value is “lost”.
